In article PMC6366710, “The structural basis of unique substrate recognition by Plasmodium thymidylate kinase: Molecular dynamics simulation and inhibitory studies” (PLoS ONE, 2019):

Target: T1, PfTMK (Plasmodium falciparum thymidylate kinase) (Plasmodium falciparum, UniProt Q8I4S1)
T1 construct: gene TMK; natural dimer
T1 sequence (Q8I4S1 1-210): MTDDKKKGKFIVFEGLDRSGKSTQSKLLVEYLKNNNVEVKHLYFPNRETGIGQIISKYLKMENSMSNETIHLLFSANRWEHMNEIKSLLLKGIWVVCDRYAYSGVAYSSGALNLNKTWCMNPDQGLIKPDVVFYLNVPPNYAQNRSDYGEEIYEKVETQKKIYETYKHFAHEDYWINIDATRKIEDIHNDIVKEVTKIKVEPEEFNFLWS
Test: NADH-coupled (pyruvate kinase/lactate dehydrogenase) spectrophotometric TMP kinase assay, initial rates
Format: biochemical
Text: NADH-coupled (pyruvate kinase/lactate dehydrogenase) spectrophotometric TMP kinase assay, initial rates on PfTMK (Plasmodium falciparum thymidylate kinase)

Compound	Ki [µM]
Nc1nc2c(ncn2[C@H]2C[C@H](O)[C@@H](CO)O2)c(=O)[nH]1 [deoxyguanosine]	270
Nc1ncn([C@H]2C[C@H](OP(=O)(O)OC[C@H]3O[C@@H](n4cnc5c(=O)[nH]c(N)nc54)C[C@@H]3O)[C@@H](CO)O2)c(=O)n1 [Guadecitabine]	90
Nc1nc2c(nc(O)n2[C@H]2C[C@H](O)[C@@H](CO)O2)c(=O)[nH]1 [8-Hydroxy-2'-deoxyguanosine]	180
Nc1nc2c(ncn2[C@@H]2O[C@H](COP(=O)(O)OP(=O)(O)O[C@H]3O[C@H](CO)[C@@H](O)[C@H](O)[C@@H]3O)[C@@H](O)[C@H]2O)c(=O)[nH]1 [Guanosine diphosphate mannose]	> 1000
